According to ChEMBL document CHEMBL4270617, “Design, synthesis, antimicrobial, antiquorum-sensing and antitumor evaluation of new series of pyrazolopyridine derivatives” (Eur J Med Chem, 2018):
pIC50: −log10 of the molar value. Values after ≈ are worked out from the molar mass of the structure shown.

Test system: Pseudomonas aeruginosa
Assay: Antibacterial activity against Pseudomonas aeruginosa PAO1 after 24 hrs by two-fold serial dilution method
Assay type: functional
Conditions: PAO1, 24 h

MIC | Compound
940 µM (≈ 500 µg/mL) | CCOC(=O)C1=C(N/C=N/c2nnc(S(N)(=O)=O)s2)Nc2[nH]nc(C)c2C1c1ccc(N(C)C)cc1 (stereo not given)
397 µM (≈ 250 µg/mL) | CCOC(=O)C1=C(N/N=C(/C(=O)Br)c2ccc(Br)cc2)Nc2[nH]nc(C)c2C1c1ccc(N(C)C)cc1 (stereo not given)

Compound | MIC
CCOC(=O)C1=C(N/C=N/c2cccnc2Cl)Nc2[nH]nc(C)c2C1c1ccc(N(C)C)cc1 (stereo not given) | 65.1 µM (≈ 31.2 µg/mL)

Test system: Ehrlich
Assay: Antitumor activity against mouse EAC cells allografted in Swiss mouse assessed as viable tumor cell count at 0.5 mg/mouse administered for 9 days (reference value: 77.41 10^6/ml)
Assay type: functional
Conditions: not given

Compound | Activity
COc1cccc2c1C(=O)c1c(O)c3c(c(O)c1C2=O)C[C@@](O)(C(=O)CO)C[C@@H]3O[C@H]1C[C@H](N)[C@H](O)[C@H](C)O1 [DOXORUBICIN] | 16.36 ×10⁶ /ml
CCOC(=O)C1=C(N/C=N/c2cccnc2Cl)Nc2[nH]nc(C)c2C1c1ccc(N(C)C)cc1 (stereo not given) | 21.8 ×10⁶ /ml

Test system: Aspergillus flavus
Assay: Antifungal activity against Aspergillus flavus 3375 after 48 hrs by two-fold serial dilution method
Assay type: functional
Conditions: Aspergillus flavus, 3375, 48 h

MIC | Compound
940 µM (≈ 500 µg/mL) | CCOC(=O)C1=C(N/C=N/c2nnc(S(N)(=O)=O)s2)Nc2[nH]nc(C)c2C1c1ccc(N(C)C)cc1 (stereo not given)
1590 µM (≈ 1000 µg/mL) | CCOC(=O)C1=C(N/N=C(/C(=O)Br)c2ccc(Br)cc2)Nc2[nH]nc(C)c2C1c1ccc(N(C)C)cc1 (stereo not given)

Compound | MIC
CCOC(=O)C1=C(N/C=N/c2cccnc2Cl)Nc2[nH]nc(C)c2C1c1ccc(N(C)C)cc1 (stereo not given) | 521 µM (≈ 250 µg/mL)

Test system: Mus musculus
Assay: Toxicity in Swiss albino mouse implanted with mouse EAC cells assessed as RBC count at 0.5 mg/mouse administered for 9 days (reference value: 3.59 10^6/mm3)
Assay type: organism-based
Conditions: in vivo, 216 h

Compound | Activity
COc1cccc2c1C(=O)c1c(O)c3c(c(O)c1C2=O)C[C@@](O)(C(=O)CO)C[C@@H]3O[C@H]1C[C@H](N)[C@H](O)[C@H](C)O1 [DOXORUBICIN] | 5.32 ×10⁶ /mm3
CCOC(=O)C1=C(N/C=N/c2cccnc2Cl)Nc2[nH]nc(C)c2C1c1ccc(N(C)C)cc1 (stereo not given) | 5.78 ×10⁶ /mm3

Test system: Mus musculus
Assay: Toxicity in Swiss albino mouse implanted with mouse EAC cells assessed as hemoglobin level at 0.5 mg/mouse administered for 9 days (reference value: 7.05 g/dl)
Assay type: organism-based
Conditions: in vivo, 216 h

Compound | Activity
COc1cccc2c1C(=O)c1c(O)c3c(c(O)c1C2=O)C[C@@](O)(C(=O)CO)C[C@@H]3O[C@H]1C[C@H](N)[C@H](O)[C@H](C)O1 [DOXORUBICIN] | 12.75 g/dL
CCOC(=O)C1=C(N/C=N/c2cccnc2Cl)Nc2[nH]nc(C)c2C1c1ccc(N(C)C)cc1 (stereo not given) | 13.85 g/dL

Test system: WISH
Assay: Cytotoxicity against human WISH cells after 48 hrs by MTT assay
Assay type: cell-based
Conditions: not given

Compound | pIC50
CCOC(=O)C1=C(N/C=N/c2cccnc2Cl)Nc2[nH]nc(C)c2C1c1ccc(N(C)C)cc1 (stereo not given) | 4.22

Test system: Ehrlich
Assay: Antitumor activity against mouse EAC cells allografted in Swiss mouse assessed as mean survival time at 0.5 mg/mouse administered for 9 days (reference value: 18 day)
Assay type: functional
Conditions: not given

Compound | MSD
COc1cccc2c1C(=O)c1c(O)c3c(c(O)c1C2=O)C[C@@](O)(C(=O)CO)C[C@@H]3O[C@H]1C[C@H](N)[C@H](O)[C@H](C)O1 [DOXORUBICIN] | 62 days
CCOC(=O)C1=C(N/C=N/c2cccnc2Cl)Nc2[nH]nc(C)c2C1c1ccc(N(C)C)cc1 (stereo not given) | 59 days

Test system: Aspergillus fumigatus
Assay: Antifungal activity against Aspergillus fumigatus 293 after 48 hrs by two-fold serial dilution method
Assay type: functional
Conditions: Aspergillus fumigatus, 293, 48 h

MIC | Compound
940 µM (≈ 500 µg/mL) | CCOC(=O)C1=C(N/C=N/c2nnc(S(N)(=O)=O)s2)Nc2[nH]nc(C)c2C1c1ccc(N(C)C)cc1 (stereo not given)
793 µM (≈ 500 µg/mL) | CCOC(=O)C1=C(N/N=C(/C(=O)Br)c2ccc(Br)cc2)Nc2[nH]nc(C)c2C1c1ccc(N(C)C)cc1 (stereo not given)

Compound | MIC
CCOC(=O)C1=C(N/C=N/c2cccnc2Cl)Nc2[nH]nc(C)c2C1c1ccc(N(C)C)cc1 (stereo not given) | 521 µM (≈ 250 µg/mL)

Test system: Bacillus cereus
Assay: Antibacterial activity against Bacillus cereus UW 85 after 24 hrs by two-fold serial dilution method
Assay type: functional
Conditions: UW 85, 24 h

MIC | Compound
118 µM (≈ 62.5 µg/mL) | CCOC(=O)C1=C(N/C=N/c2nnc(S(N)(=O)=O)s2)Nc2[nH]nc(C)c2C1c1ccc(N(C)C)cc1 (stereo not given)
99.1 µM (≈ 62.5 µg/mL) | CCOC(=O)C1=C(N/N=C(/C(=O)Br)c2ccc(Br)cc2)Nc2[nH]nc(C)c2C1c1ccc(N(C)C)cc1 (stereo not given)

Compound | MIC
CCOC(=O)C1=C(N/C=N/c2cccnc2Cl)Nc2[nH]nc(C)c2C1c1ccc(N(C)C)cc1 (stereo not given) | 65.1 µM (≈ 31.2 µg/mL)

Test system: Ehrlich
Assay: Antitumor activity against mouse EAC cells allografted in Swiss mouse assessed as increase in life span at 0.5 mg/mouse administered for 9 days relative to control
Assay type: functional
Conditions: not given

Compound | Activity
COc1cccc2c1C(=O)c1c(O)c3c(c(O)c1C2=O)C[C@@](O)(C(=O)CO)C[C@@H]3O[C@H]1C[C@H](N)[C@H](O)[C@H](C)O1 [DOXORUBICIN] | 244.4%
CCOC(=O)C1=C(N/C=N/c2cccnc2Cl)Nc2[nH]nc(C)c2C1c1ccc(N(C)C)cc1 (stereo not given) | 227.8%

Test system: WI-38
Assay: Cytotoxicity against human W138 cells after 48 hrs by MTT assay
Assay type: cell-based
Conditions: WI-38, 48 h

Compound | pIC50
CCOC(=O)C1=C(N/C=N/c2cccnc2Cl)Nc2[nH]nc(C)c2C1c1ccc(N(C)C)cc1 (stereo not given) | 4.13

Test system: Ehrlich
Assay: Antitumor activity against mouse EAC cells allografted in Swiss mouse assessed as tumor volume at 0.5 mg/mouse administered for 9 days (reference value: 10.15 mL)
Assay type: functional
Conditions: not given

Compound | Activity
COc1cccc2c1C(=O)c1c(O)c3c(c(O)c1C2=O)C[C@@](O)(C(=O)CO)C[C@@H]3O[C@H]1C[C@H](N)[C@H](O)[C@H](C)O1 [DOXORUBICIN] | 1 mL
CCOC(=O)C1=C(N/C=N/c2cccnc2Cl)Nc2[nH]nc(C)c2C1c1ccc(N(C)C)cc1 (stereo not given) | 1.25 mL

Test system: HepG2
Assay: Antitumor activity against human HepG2 cells assessed as inhibition of cell proliferation after 48 hrs by MTT assay
Assay type: functional, cell-based
Conditions: HepG2, 48 h

Compound | pIC50
COc1cccc2c1C(=O)c1c(O)c3c(c(O)c1C2=O)C[C@@](O)(C(=O)CO)C[C@@H]3O[C@H]1C[C@H](N)[C@H](O)[C@H](C)O1 [DOXORUBICIN] | 5.37
CCOC(=O)C1=C(N/C=N/c2nnc(S(N)(=O)=O)s2)Nc2[nH]nc(C)c2C1c1ccc(N(C)C)cc1 (stereo not given) | 4.42
CCOC(=O)C1=C(N/C=N/c2cccnc2Cl)Nc2[nH]nc(C)c2C1c1ccc(N(C)C)cc1 (stereo not given) | 5.31
CCOC(=O)C1=C(N/N=C(/C(=O)Br)c2ccc(Br)cc2)Nc2[nH]nc(C)c2C1c1ccc(N(C)C)cc1 (stereo not given) | 4.19

Test system: Staphylococcus aureus
Assay: Antibacterial activity against Staphylococcus aureus ATCC 29213 after 24 hrs by two-fold serial dilution method
Assay type: functional
Conditions: ATCC 29213, 24 h

MIC | Compound
118 µM (≈ 62.5 µg/mL) | CCOC(=O)C1=C(N/C=N/c2nnc(S(N)(=O)=O)s2)Nc2[nH]nc(C)c2C1c1ccc(N(C)C)cc1 (stereo not given)
99.1 µM (≈ 62.5 µg/mL) | CCOC(=O)C1=C(N/N=C(/C(=O)Br)c2ccc(Br)cc2)Nc2[nH]nc(C)c2C1c1ccc(N(C)C)cc1 (stereo not given)

Compound | MIC
CCOC(=O)C1=C(N/C=N/c2cccnc2Cl)Nc2[nH]nc(C)c2C1c1ccc(N(C)C)cc1 (stereo not given) | 65.1 µM (≈ 31.2 µg/mL)

Test system: Candida albicans
Assay: Antifungal activity against Candida albicans after 48 hrs by two-fold serial dilution method
Assay type: functional
Conditions: not given

MIC | Compound
940 µM (≈ 500 µg/mL) | CCOC(=O)C1=C(N/C=N/c2nnc(S(N)(=O)=O)s2)Nc2[nH]nc(C)c2C1c1ccc(N(C)C)cc1 (stereo not given)
397 µM (≈ 250 µg/mL) | CCOC(=O)C1=C(N/N=C(/C(=O)Br)c2ccc(Br)cc2)Nc2[nH]nc(C)c2C1c1ccc(N(C)C)cc1 (stereo not given)

Compound | MIC
CCOC(=O)C1=C(N/C=N/c2cccnc2Cl)Nc2[nH]nc(C)c2C1c1ccc(N(C)C)cc1 (stereo not given) | 130 µM (≈ 62.5 µg/mL)

Test system: HeLa
Assay: Antitumor activity against human HeLa cells assessed as inhibition of cell proliferation after 48 hrs by MTT assay
Assay type: functional, cell-based
Conditions: not given

Compound | pIC50
COc1cccc2c1C(=O)c1c(O)c3c(c(O)c1C2=O)C[C@@](O)(C(=O)CO)C[C@@H]3O[C@H]1C[C@H](N)[C@H](O)[C@H](C)O1 [DOXORUBICIN] | 5.29

Same assay, conditions: read-out: IC50

pIC50 | Compound
4.58 | CCOC(=O)C1=C(N/C=N/c2nnc(S(N)(=O)=O)s2)Nc2[nH]nc(C)c2C1c1ccc(N(C)C)cc1 (stereo not given)
4.16 | CCOC(=O)C1=C(N/N=C(/C(=O)Br)c2ccc(Br)cc2)Nc2[nH]nc(C)c2C1c1ccc(N(C)C)cc1 (stereo not given)

Compound | pIC50
CCOC(=O)C1=C(N/C=N/c2cccnc2Cl)Nc2[nH]nc(C)c2C1c1ccc(N(C)C)cc1 (stereo not given) | 5.33

Test system: Chromobacterium violaceum
Assay: Inhibition of quorum sensing system in Chromobacterium violaceum ATCC 12472 assessed as diameter of violacein pigment inhibition at 5 mg/ml after 48 hrs
Conditions: not given

diameter of the inhibition zone (DIZ) | Compound
9 mm | CCOC(=O)C1=C(N/C=N/c2nnc(S(N)(=O)=O)s2)Nc2[nH]nc(C)c2C1c1ccc(N(C)C)cc1 (stereo not given)
< 2 mm | CCOC(=O)C1=C(N/N=C(/C(=O)Br)c2ccc(Br)cc2)Nc2[nH]nc(C)c2C1c1ccc(N(C)C)cc1 (stereo not given)

Compound | diameter of the inhibition zone (DIZ)
CCOC(=O)C1=C(N/C=N/c2cccnc2Cl)Nc2[nH]nc(C)c2C1c1ccc(N(C)C)cc1 (stereo not given) | < 2 mm

Test system: MCF7
Assay: Antitumor activity against human MCF7 cells assessed as inhibition of cell proliferation after 48 hrs by MTT assay
Assay type: functional, cell-based
Conditions: MCF7, 48 h

pIC50 | Compound
4.46 | CCOC(=O)C1=C(N/C=N/c2nnc(S(N)(=O)=O)s2)Nc2[nH]nc(C)c2C1c1ccc(N(C)C)cc1 (stereo not given)
4.21 | CCOC(=O)C1=C(N/N=C(/C(=O)Br)c2ccc(Br)cc2)Nc2[nH]nc(C)c2C1c1ccc(N(C)C)cc1 (stereo not given)

Compound | pIC50
CCOC(=O)C1=C(N/C=N/c2cccnc2Cl)Nc2[nH]nc(C)c2C1c1ccc(N(C)C)cc1 (stereo not given) | 5.38

Molecular target: not listed separately
Assay: Displacement of methyl green from DNA (unknown origin) incubated in dark for 24 hrs
Conditions: not given

Compound | pIC50
COc1cccc2c1C(=O)c1c(O)c3c(c(O)c1C2=O)C[C@@](O)(C(=O)CO)C[C@@H]3O[C@H]1C[C@H](N)[C@H](O)[C@H](C)O1 [DOXORUBICIN] | 4.50
CCOC(=O)C1=C(N/C=N/c2nnc(S(N)(=O)=O)s2)Nc2[nH]nc(C)c2C1c1ccc(N(C)C)cc1 (stereo not given) | 4.10
CCOC(=O)C1=C(N/C=N/c2cccnc2Cl)Nc2[nH]nc(C)c2C1c1ccc(N(C)C)cc1 (stereo not given) | 4.52
CCOC(=O)C1=C(N/N=C(/C(=O)Br)c2ccc(Br)cc2)Nc2[nH]nc(C)c2C1c1ccc(N(C)C)cc1 (stereo not given) | 4.36

Test system: Mus musculus
Assay: Toxicity in Swiss albino mouse implanted with mouse EAC cells assessed as WBC count at 0.5 mg/mouse administered for 9 days (reference value: 20.53 10^3/mm3)
Assay type: organism-based
Conditions: in vivo, 216 h

Compound | Activity
COc1cccc2c1C(=O)c1c(O)c3c(c(O)c1C2=O)C[C@@](O)(C(=O)CO)C[C@@H]3O[C@H]1C[C@H](N)[C@H](O)[C@H](C)O1 [DOXORUBICIN] | 8.96 ×10³ /mm3
CCOC(=O)C1=C(N/C=N/c2cccnc2Cl)Nc2[nH]nc(C)c2C1c1ccc(N(C)C)cc1 (stereo not given) | 8.14 ×10³ /mm3

Test system: Escherichia coli
Assay: Antibacterial activity against Escherichia coli ATCC 12435 after 24 hrs by two-fold serial dilution method
Assay type: functional
Conditions: ATCC 12435, 24 h

MIC | Compound
940 µM (≈ 500 µg/mL) | CCOC(=O)C1=C(N/C=N/c2nnc(S(N)(=O)=O)s2)Nc2[nH]nc(C)c2C1c1ccc(N(C)C)cc1 (stereo not given)
397 µM (≈ 250 µg/mL) | CCOC(=O)C1=C(N/N=C(/C(=O)Br)c2ccc(Br)cc2)Nc2[nH]nc(C)c2C1c1ccc(N(C)C)cc1 (stereo not given)

Compound | MIC
CCOC(=O)C1=C(N/C=N/c2cccnc2Cl)Nc2[nH]nc(C)c2C1c1ccc(N(C)C)cc1 (stereo not given) | 65.1 µM (≈ 31.2 µg/mL)
